Patent US20220274938A1, “5-[(1S)-1-(4-BROMOPHENOXY)ETHYL]-2H-TETRAZOLE DERIVATIVES AND RELATED COMPOUNDS AS CLC-1 ION CHANNEL INHIBITORS FOR TREATING NEUROMUSCULAR DISORDERS” (NMD PHARMA A/S, priority 2019, published 2022)

Target: T1, CIC-1 ion channel (Rattus norvegicus, UniProt P35524)
T1 construct: CIC-1 channels in native tissue of rat skeletal muscle fibres; from tissue; host or cells: whole soleus muscle of 12-14 week old Wistar rats
T1 sequence (P35524 1-994): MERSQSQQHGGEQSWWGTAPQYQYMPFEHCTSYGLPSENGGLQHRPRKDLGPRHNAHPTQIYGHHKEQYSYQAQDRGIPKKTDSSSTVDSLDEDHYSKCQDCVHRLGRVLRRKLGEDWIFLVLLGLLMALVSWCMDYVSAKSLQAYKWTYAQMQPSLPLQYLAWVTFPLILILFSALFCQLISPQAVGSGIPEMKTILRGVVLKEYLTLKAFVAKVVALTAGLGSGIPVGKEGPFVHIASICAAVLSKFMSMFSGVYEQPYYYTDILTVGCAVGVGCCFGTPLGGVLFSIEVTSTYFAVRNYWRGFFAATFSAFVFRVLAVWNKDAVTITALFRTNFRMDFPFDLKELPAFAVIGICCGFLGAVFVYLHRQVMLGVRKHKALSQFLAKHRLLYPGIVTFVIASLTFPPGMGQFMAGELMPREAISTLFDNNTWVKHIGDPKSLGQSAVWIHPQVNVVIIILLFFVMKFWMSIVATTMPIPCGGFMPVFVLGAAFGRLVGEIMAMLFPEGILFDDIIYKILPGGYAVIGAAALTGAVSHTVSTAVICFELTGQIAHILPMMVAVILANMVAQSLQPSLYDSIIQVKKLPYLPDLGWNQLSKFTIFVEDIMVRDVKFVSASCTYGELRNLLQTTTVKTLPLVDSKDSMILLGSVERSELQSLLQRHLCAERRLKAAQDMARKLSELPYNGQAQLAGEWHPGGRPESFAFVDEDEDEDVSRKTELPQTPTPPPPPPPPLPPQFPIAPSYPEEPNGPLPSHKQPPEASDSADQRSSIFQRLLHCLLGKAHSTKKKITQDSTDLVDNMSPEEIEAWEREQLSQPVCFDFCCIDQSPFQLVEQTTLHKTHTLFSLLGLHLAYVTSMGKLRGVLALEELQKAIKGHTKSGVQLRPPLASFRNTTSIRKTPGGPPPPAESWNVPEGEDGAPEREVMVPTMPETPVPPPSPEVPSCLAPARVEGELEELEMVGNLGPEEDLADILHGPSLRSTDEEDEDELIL
Test: Electrophysiological measurement (Gm, three micro-electrodes) of compound inhibition of CIC-1 in rat soleus muscle fibres
Format: cell-based
Settings: approx. 30° C., four increasing compound concentrations, read-out: EC50 (inhibition of CIC-1 ion channel, reduction of Gm)
Excerpt: FIG. 1. […] Please note that the drawing illustrates only the impaled fibre although it is part of an intact muscle that contains many such fibres. All electrodes recorded the membrane potential of the fibre and the two peripheral electrodes were used to inject current (−30 nA, 50 ms). The electrodes were inserted with known inter-electrode distances (X1, X2 and X3). After insertion, current was passed first via the V1 electrode and then via the V3 electrode. The resulting deflections in the membrane voltage were measured by the other electrodes. The steady state deflections in membrane potential were measured and divided by the magnitude of the injected current (−30 nA) to obtain transfer resistances. These were next plotted against inter-electrode distances, and fitted to an exponential function (Panel B), from which Gm could be calculated using linear cable theory. The approach described in panel A and B, was repeated for several muscle fibres in the muscle during exposure at increasing concentrations of compound E-8, with approx. 10 fibres at each concentration. Average Gm at each concentration was plotted as a function of compound concentration in panel C, and fitted to a 4-parameter sigmoidal function from which the EC50 value for the compound was obtained (dashed line)
Apparent CIC-1 affinity was reported by the concentration of compound at which 50% of the compound's full inhibition of CIC-1 was observed (EC50).
CIC-1 Cl^− ion channels generate around 80% of the total membrane conductance (Gm) in resting skeletal muscle fibres of most animals including rat and human (Bretag, A H. Muscle chloride channels. Physiological Reviews, 1987, 67, 618-724). […] CIC-1 inhibition would in such recordings be reflected by a reduction of Gm.
Experimentally, Gm was measured in individual fibres of whole rat soleus muscles using a three micro-electrodes technique described in this example and in full detail elsewhere (Riisager et al., Determination of cable parameters in skeletal muscle fibres during repetitive firing of action potentials. Journal of Physiology, 2014, 592, 4417-4429). Briefly, intact rat soleus muscles were dissected out from 12-14 week old Wistar rats and placed in an experimental chamber that was perfused with a standard Krebs Ringer solution containing 122 mM NaCl, 25 mM NaHCO3, 2.8 mM KCl, 1.2 mM KH2PO4, 1.2 mM MgSO4, 1.3 mM CaCl2, 5.0 mM D-glucose. During experiments, the solution was kept at approx. 30° C. and continuously equilibrated with a mixture of 95% O2 and 5% CO2, pH˜7.4. The experimental chamber was placed in Nikon upright microscope that was used to visualize individual muscle fibres and the three electrodes (glass pipettes filled with 2 M potassium citrate). For Gm measurements, the electrodes were inserted into the same fibre with known inter-electrode distances of 0.35-0.5 mm (V1-V2, X1) and 1.1-1.5 mm (V1-V3, X3) (FIG. 1A). The membrane potential of the impaled muscle fibre was recorded by all electrodes. Two of the electrodes were furthermore used to inject 50 ms current pulses of −30 nA. […] The steady state voltage deflection at each distance was divided by the magnitude of current injected (−30 nA) and the resulting transfer resistances were plotted against inter-electrode distance and the data was fitted to a mono-exponential function from which Gm could be calculated using linear cable theory (FIG. 1B).
To establish a dose response relationship, Gm was first determined in 10 muscle fibres in the absence of compound and then at four increasing compound concentrations with Gm determinations in 5-10 fibres at each concentration. The average Gm values at each concentration were plotted against compound concentration and the data was fitted to sigmoidal function to obtain an EC50 value (FIG. 1C).

SMILES | EC50
C[C@H](Oc1ccc(Cl)cc1)C(=O)NOC1CCC1 [Compound C-80, (2S)-2-(4-chlorophenoxy)-N-cyclobutoxypropanamide] | 2.6 µM
C[C@H](Oc1ccc(Br)cc1F)c1nn[nH]n1 [Compound E-8, 5-[(1S)-1-(4-bromo-2-fluorophenoxy)ethyl]-2H-1,2,3,4-tetrazole] | 6.6 µM
